Among the data in ChEMBL document CHEMBL3046479, “Preparation and antimicrobial activity evaluation of some new bi- and triheterocyclic azoles” (2013) are MIC values, retold here.

Values after ≈ are worked out from the molar mass of the structure shown. Active and inactive are the calls of the source. No cut-off for these calls is given here.

What all share (assay type): functional
In one assay the test system is Saccharomyces cerevisiae. The assay is described as follows: Antimicrobial activity against Saccharomyces cerevisiae RSKK 251 assessed as growth inhibition after 18-24 hr by broth double microdilution method.
A further assay relates to Listeria monocytogenes. As to the kind of experiment: Antimicrobial activity against Listeria monocytogenes ATCC 43251 assessed as growth inhibition after 18-24 hr by broth double microdilution method.
Another assay relates to Escherichia coli. The assay is described as follows: Antimicrobial activity against Escherichia coli ATCC 35218 assessed as growth inhibition after 18-24 hr by broth double microdilution method.
Assay [1] deals with Yersinia pseudotuberculosis. As to the kind of experiment: Antimicrobial activity against Yersinia pseudotuberculosis ATCC 911 assessed as growth inhibition after 18-24 hr by broth double microdilution method.
A further assay has as its system Candida albicans. The assay is described as follows: Antimicrobial activity against Candida albicans ATCC 60193 assessed as growth inhibition after 18-24 hr by broth double microdilution method.
A further assay deals with Bacillus cereus. As to the kind of experiment: Antimicrobial activity against Bacillus cereus 709 Roma assessed as growth inhibition after 18-24 hr by broth double microdilution method.
The next assay concerns Pseudomonas aeruginosa. The assay is described as follows: Antimicrobial activity against Pseudomonas aeruginosa ATCC 10145 assessed as growth inhibition after 18-24 hr by broth double microdilution method.
The test system of the next assay is Staphylococcus aureus. The assay is described as follows: Antimicrobial activity against Staphylococcus aureus ATCC 25923 assessed as growth inhibition after 18-24 hr by broth double microdilution method.
The next assay relates to Enterococcus faecalis. The assay is described as follows: Antimicrobial activity against Enterococcus faecalis ATCC 29212 assessed as growth inhibition after 18-24 hr by broth double microdilution method.
Assay [2] has as its system Mycolicibacterium smegmatis. The assay is described as follows: Antimicrobial activity against Mycobacterium smegmatis ATCC 607 assessed as growth inhibition after 48-72 hr by broth double microdilution method.

For the compound `Cc1nn(-c2ccc([N+](=O)[O-])cc2F)c(=O)n1CCCn1ccnc1`, the minimum inhibitory concentration (MIC) in the assay on Saccharomyces cerevisiae and in the assay on Candida albicans was 500 µg/mL (≈ 1440 µM) throughout. Besides, the MIC result (in the assay with Listeria monocytogenes; in the assay on Escherichia coli; in assay [1]; in the assay with Bacillus cereus; in the assay with Pseudomonas aeruginosa; in the assay with Staphylococcus aureus) was “inactive” in each case. For the same compound, the MIC entry (with Enterococcus faecalis; in [2]) was “inactive” each time.
Regarding `Cc1nn(-c2ccc(N)cc2F)c(=O)[nH]1`, the values for the MIC (in the assay with Saccharomyces cerevisiae; in the assay on Candida albicans; in assay [2]) were 500 µg/mL (≈ 2400 µM), 125 µg/mL (≈ 600 µM) and 31.3 µg/mL (≈ 150 µM), respectively. The MIC entry (with Listeria monocytogenes; in the assay on Escherichia coli; in assay [1]; in the assay with Bacillus cereus; in the assay on Pseudomonas aeruginosa; with Staphylococcus aureus) was “inactive” throughout. Further, the MIC result in the assay on Enterococcus faecalis was “inactive”.
As to `CCOC(=O)Cn1nc(C)n(/N=C/c2ccncc2)c1=O`, the MIC entry (in the assay on Saccharomyces cerevisiae; in the assay with Listeria monocytogenes; in the assay with Escherichia coli; in [1]; in the assay with Bacillus cereus; in the assay on Pseudomonas aeruginosa) was “inactive” each time. Further, the MIC result (in the assay on Staphylococcus aureus; in the assay on Enterococcus faecalis; in [2]) was “inactive” throughout. Besides, the MIC in the assay with Candida albicans turned out to be 250 µg/mL (≈ 864 µM).
As for `Cc1nn(-c2ccc(/N=C/c3c(Cl)cccc3Cl)cc2F)c(=O)n1CCCn1ccnc1`, the MIC result (in the assay on Saccharomyces cerevisiae; in the assay with Listeria monocytogenes; in assay [1]; with Bacillus cereus; with Pseudomonas aeruginosa; in the assay on Staphylococcus aureus) was “inactive” each time. The MIC entry in the assay on Enterococcus faecalis was “inactive”. For the same compound, the results for the MIC (with Candida albicans; in assay [2]) were 250 µg/mL (≈ 528 µM) and 3.9 µg/mL (≈ 8.24 µM), respectively.
`Cc1nn(-c2ccc(NC(=S)NCc3ccccc3)cc2F)c(=O)n1CCCn1ccnc1`: the MIC worked out at 500 µg/mL (≈ 1070 µM) in the assay on Saccharomyces cerevisiae, 500 µg/mL (≈ 1070 µM) with Candida albicans and 250 µg/mL (≈ 537 µM) in assay [2]. Also, the MIC result (in the assay on Listeria monocytogenes; in the assay with Escherichia coli; in assay [1]; with Pseudomonas aeruginosa; with Staphylococcus aureus; in the assay with Enterococcus faecalis) was “inactive” in each case.
In the case of `Cc1nn(CC(=O)NNC(=S)Nc2ccccc2)c(=O)n1/N=C/c1ccncc1`, the MIC result (in the assay on Saccharomyces cerevisiae; in the assay on Listeria monocytogenes; with Escherichia coli; in assay [1]; with Candida albicans; with Bacillus cereus) was “inactive” throughout. Also, the MIC entry (in the assay on Pseudomonas aeruginosa; in the assay on Staphylococcus aureus; in the assay with Enterococcus faecalis; in assay [2]) was “inactive” throughout.
Turning to `Cc1nn(CNCc2ccco2)c(=O)n1CCCn1ccnc1`, the MIC result (with Saccharomyces cerevisiae; in the assay with Listeria monocytogenes; in the assay with Escherichia coli; in assay [1]; with Pseudomonas aeruginosa; in the assay with Staphylococcus aureus) was “inactive” each time. Further, the MIC result in the assay on Enterococcus faecalis is “inactive”. In addition, the MIC in the assay with Candida albicans came out at 500 µg/mL (≈ 1580 µM); in the assay with Bacillus cereus, 125 µg/mL (≈ 395 µM); in assay [2] it was 125 µg/mL (≈ 395 µM).
For the compound `CC1(C)S[C@@H]2[C@H](NC(=O)[C@H](N)c3ccccc3)C(=O)N2[C@H]1C(=O)O` [AMPICILLIN], the MIC with Listeria monocytogenes was 8 µg/mL (≈ 22.9 µM); in assay [1], 32 µg/mL (≈ 91.6 µM); in the assay on Bacillus cereus, under 1 µg/mL; in the assay with Pseudomonas aeruginosa, over 128 µg/mL; with Staphylococcus aureus, 2 µg/mL (≈ 5.72 µM); with Enterococcus faecalis, 2 µg/mL (≈ 5.72 µM).
Turning to `Cc1nn(CN2CCCCC2)c(=O)n1CCCn1ccnc1`, the MIC was 3.9 µg/mL (≈ 12.8 µM) with Saccharomyces cerevisiae; under 0.12 µg/mL in the assay on Listeria monocytogenes; under 0.12 µg/mL in the assay on Escherichia coli; under 0.12 µg/mL in assay [1]; 15.6 µg/mL (≈ 51.2 µM) in the assay with Candida albicans; under 0.12 µg/mL in the assay with Bacillus cereus. For the same compound, the MIC in the assay on Pseudomonas aeruginosa was under 0.12 µg/mL; with Staphylococcus aureus it was under 0.12 µg/mL; in the assay with Enterococcus faecalis, under 0.12 µg/mL; in [2] it was 3.9 µg/mL (≈ 12.8 µM).
For `Cc1n[nH]c(=O)n1CCCn1ccnc1`, the figures for the MIC (with Saccharomyces cerevisiae; in the assay with Candida albicans; in assay [2]) were 1000 µg/mL (≈ 4830 µM), 500 µg/mL (≈ 2410 µM) and 125 µg/mL (≈ 603 µM), respectively. Besides, the MIC result (in the assay on Listeria monocytogenes; in the assay on Escherichia coli; in assay [1]; with Pseudomonas aeruginosa; with Staphylococcus aureus; with Enterococcus faecalis) was “inactive” each time.
On to `Cc1nn(CC(=O)N/N=c2\sc(-c3ccc(Cl)cc3)cn2-c2ccccc2)c(=O)n1/N=C/c1ccncc1`, for which the minimal inhibitory concentration (MIC) in the assay with Saccharomyces cerevisiae was determined as 250 µg/mL (≈ 459 µM); in the assay with Candida albicans, 125 µg/mL (≈ 229 µM); in the assay on Bacillus cereus, 125 µg/mL (≈ 229 µM); in the assay on Staphylococcus aureus, 125 µg/mL (≈ 229 µM). Also, the MIC result (in the assay on Listeria monocytogenes; in the assay on Escherichia coli; in [1]; with Pseudomonas aeruginosa; with Enterococcus faecalis; in assay [2]) was “inactive” each time.
For the compound `Cc1nn(CC(=O)NN)c(=O)n1/N=C/c1ccncc1`, the MIC result (in the assay with Saccharomyces cerevisiae; in the assay with Listeria monocytogenes; in the assay with Escherichia coli; in assay [1]; with Bacillus cereus; in the assay on Pseudomonas aeruginosa) was “inactive” throughout. Besides, the MIC entry with Staphylococcus aureus and with Enterococcus faecalis was “inactive” each time. Besides, the figures for the MIC (in the assay on Candida albicans; in [2]) were 500 µg/mL (≈ 1820 µM) and 250 µg/mL (≈ 908 µM), respectively.
As for `Cc1nn(CN2CCN(c3ccccc3)CC2)c(=O)n1CCCn1ccnc1`, the MIC in the assay on Saccharomyces cerevisiae came to 125 µg/mL (≈ 328 µM); in [1], 0.7 µg/mL (≈ 1.83 µM); with Bacillus cereus it was 1.2 µg/mL (≈ 3.15 µM); in the assay on Pseudomonas aeruginosa, 31.3 µg/mL (≈ 82 µM); in the assay with Staphylococcus aureus it was 62.5 µg/mL (≈ 164 µM). In addition, the MIC entry (in the assay on Listeria monocytogenes; in the assay with Escherichia coli; in the assay with Candida albicans; in the assay with Enterococcus faecalis; in assay [2]) was “inactive” throughout.
With `Cc1nn(-c2ccc(/N=C/c3ccc(Br)cc3)cc2F)c(=O)n1CCCn1ccnc1`, the MIC result (in the assay with Saccharomyces cerevisiae; in the assay on Listeria monocytogenes; with Escherichia coli; in assay [1]; with Candida albicans; in the assay with Bacillus cereus) was “inactive” in each case. Also, the MIC result with Pseudomonas aeruginosa, in the assay with Staphylococcus aureus and with Enterococcus faecalis was “inactive” throughout. Moreover, the MIC in assay [2] was determined as 0.24 µg/mL (≈ 0.497 µM).
Consider `Cc1nn(CNCCN2CCNCC2)c(=O)n1CCCn1ccnc1`, for which the MIC entry in the assay with Listeria monocytogenes, in the assay on Bacillus cereus, in the assay with Pseudomonas aeruginosa and in the assay on Enterococcus faecalis was “inactive” in each case. Besides, the MIC is 1.2 µg/mL (≈ 3.44 µM) in the assay with Escherichia coli; 62.5 µg/mL (≈ 179 µM) in assay [1]; 125 µg/mL (≈ 359 µM) in the assay with Candida albicans; 125 µg/mL (≈ 359 µM) with Staphylococcus aureus; 500 µg/mL (≈ 1430 µM) in [2].
Consider `Cc1nn(Cc2nnc(S)n2-c2ccccc2)c(=O)n1CCCn1ccnc1`, for which the MIC turned out to be 500 µg/mL (≈ 1260 µM) in the assay on Saccharomyces cerevisiae, 500 µg/mL (≈ 1260 µM) with Candida albicans and 125 µg/mL (≈ 315 µM) in assay [2]. Also, the MIC result (with Listeria monocytogenes; in the assay with Escherichia coli; in assay [1]; with Bacillus cereus; in the assay with Pseudomonas aeruginosa; with Staphylococcus aureus) was “inactive” each time. The MIC result with Enterococcus faecalis was “inactive”.
For the compound `Cc1nn(-c2ccc(N)cc2F)c(=O)n1CCCn1ccnc1`, the results for the MIC (in the assay with Saccharomyces cerevisiae; in the assay on Candida albicans; in assay [2]) were 62.5 µg/mL (≈ 198 µM), 250 µg/mL (≈ 790 µM) and 31.3 µg/mL (≈ 98.9 µM), respectively. In addition, the MIC entry (in the assay with Listeria monocytogenes; in the assay with Escherichia coli; in assay [1]; in the assay on Bacillus cereus; in the assay on Pseudomonas aeruginosa; in the assay on Staphylococcus aureus) was “inactive” throughout. In the assay with Enterococcus faecalis, the MIC result is “inactive”.
As to `CN[C@@H]1[C@H](O[C@H]2[C@H](O[C@H]3[C@H](O)[C@@H](O)[C@H](N=C(N)N)[C@@H](O)[C@@H]3N=C(N)N)O[C@@H](C)[C@]2(O)C=O)O[C@@H](CO)[C@H](O)[C@H]1O` [STREPTOMYCIN], the MIC in [2] turned out to be 4 µg/mL (≈ 6.88 µM).
For `Cc1nn(CC(=O)N/N=c2\sc(-c3ccc(Cl)cc3)cn2-c2ccccc2)c(=O)n1CCCn1ccnc1`, the MIC in the assay with Saccharomyces cerevisiae amounted to 1000 µg/mL (≈ 1820 µM); in the assay on Candida albicans, 250 µg/mL (≈ 455 µM); in assay [2], 39.9 µg/mL (≈ 72.7 µM). The MIC entry (in the assay with Listeria monocytogenes; in the assay with Escherichia coli; in assay [1]; in the assay on Pseudomonas aeruginosa; in the assay on Staphylococcus aureus; in the assay on Enterococcus faecalis) was “inactive” in each case.
As to `CCOC(=O)Cn1nc(C)n(CCCn2ccnc2)c1=O`, the MIC result in the assay with Saccharomyces cerevisiae, in the assay on Listeria monocytogenes, with Escherichia coli, in the assay on Bacillus cereus, in the assay on Pseudomonas aeruginosa and in the assay with Staphylococcus aureus was “inactive” each time. The MIC result (in the assay on Enterococcus faecalis; in assay [2]) was “inactive” in each case. Also, in the assay on Candida albicans, the minimal inhibitory concentration (MIC) was 250 µg/mL (≈ 852 µM).
Consider `OC(Cn1cncn1)(Cn1cncn1)c1ccc(F)cc1F` [FLUCONAZOLE], for which the MIC with Saccharomyces cerevisiae and in the assay on Candida albicans was under 8 µg/mL each time.
